Measurements from ChEMBL document CHEMBL3751773, “A minimally cytotoxic CD4 mimic as an HIV entry inhibitor” (Bioorg Med Chem Lett, 2016).

Columns and labels:
PM1 = assay: Induction of conformational change in R5-tropic HIV1 cYTA48P gp120 infected in human PM1 cells assessed as increase in binding affinity to monoclonal antibody 4C11 at 100 uM after 15 mins by FACS analysis; format: cell-based; details: Human immunodeficiency virus 1
[1] = Half life in rhesus macaque plasma at 75 mg, iv after 0 to 24 hrs by HPLC analysis; format: ADME, organism-based, Macaca mulatta; details: rhesus monkey
[2] = tested on: Human immunodeficiency virus 1; assay: Antiviral activity against R5-tropic HIV1 cYTA48P infected in TZM-bl cells by single round assay; format: functional, organism-based; details: Human immunodeficiency virus 1, cYTA48P
[3] = Cytotoxicity against mock-infected human PM1 cells expressing CCR5 by WST method; format: cell-based
[4] = Volume of distribution in rhesus macaque plasma at 75 mg, iv after 0 to 24 hrs by HPLC analysis; format: ADME, organism-based, Macaca mulatta; details: rhesus monkey
[5] = Initial concentration in rhesus macaque blood at 75 mg, iv after 0 to 24 hrs by HPLC analysis; format: ADME, organism-based, Macaca mulatta; details: rhesus monkey
Rhesus monkey [6] = assay: Toxicity in rhesus macaque assessed as survival at 77.8 mg, iv measured after 6 months; format: organism-based, Macaca mulatta; details: in vivo, 4383 h
Rhesus monkey [7] = assay: Toxicity in rhesus macaque assessed as decrease in body temperature at 77.8 mg, iv after 24 hrs; format: organism-based, Macaca mulatta; details: in vivo
[8] = Toxicity in iv dosed rhesus macaque; format: organism-based, Macaca mulatta; details: rhesus monkey, in vivo
Rhesus monkey [9] = assay: Toxicity in rhesus macaque assessed as mydriasis at 77.8 mg, iv measured within 2 hrs; format: organism-based, Macaca mulatta; details: in vivo
Rhesus monkey [10] = assay: Toxicity in rhesus macaque assessed as decrease in body temperature at 77.8 mg, iv measured within 2 hrs; format: organism-based, Macaca mulatta; details: in vivo

CC1(C)CC(NC(=O)C(=O)Nc2ccc3c(c2)OCO3)CC(C)(C)N1 [listing 1 of 2 here]
Flu intensity (PM1): 12.3

CC1(C)CC(NC(=O)C(=O)Nc2ccc3c(c2)OCO3)CC(C)(C)N1 [listing 2 of 2 here]
half-life [1]: 1.75 h | IC50 [2]: 6.2 µM | CC50 [3]: > 300 µM | Vd [4]: 37.2 L | C0 [5]: 2090 ng/mL

CC1(C)CC(NC(=O)C(=O)Nc2ccc3c(c2)OCO3)CC(C)(C)N1.Cl
Activity (Rhesus monkey [6]): Non-toxic | Activity (Rhesus monkey [7]): Non-toxic | MTD [8]: 12.5 mg/kg | Activity (Rhesus monkey [9]): Toxic | Activity (Rhesus monkey [10]): Toxic

CCOC(=O)C1CCN(NC(=O)C(=O)Nc2ccc3c(c2)OCO3)CC1
Flu intensity (PM1): 7.83 | IC50 [2]: > 100 µM | CC50 [3]: > 200 µM

CC1(C)CC(NC(=O)C(=O)Nc2ccc(Cl)cc2)CC(C)(C)N1
Flu intensity (PM1): 8.91 | IC50 [2]: 0.63 µM | CC50 [3]: 70.4 µM

O=C(Nc1ccc2c(c1)OCO2)C(=O)NC1CC2(CCCCC2)NC2(CCCCC2)C1 (stereo not given)
Flu intensity (PM1): 6.93 | IC50 [2]: 1.13 µM | CC50 [3]: > 200 µM
